In US20110152166A1, “METHOD OF MODULATION OF PROTEIN PHOSPHORYLATION-DEPENDENT CONFORMATIONAL TRANSITIONS WITH LOW MOLECULAR WEIGHT COMPOUNDS” (priority 2006, published 2011):
Ends that are not written are not given here.

How the values were obtained:
Test in all cases: PDK1 activity assay with T308tide
Format in all cases: biochemical
PDK1 [Phe224Trp] = target: T1, PDK1 [Phe224Trp] (Homo sapiens, UniProt O15530, F224W); conditions: catalytic domain 50-360
T1 construct: the catalytic domain of PDK1 (50-359) produced in SF9 insect cells; His-tag (N, cleaved yes); made in house; host or cells: insect cells (baculovirus)
Procedure: (§1) FIG. 6—A mutation at Thr226 in PDK1 uncouples the ligand binding to the HM/PIF-pocket from activation of the kinase. The catalytic domain (CD) of PDK1 50-360 and its mutants Phe224Trp and Thr226Trp were expressed in insect cells and purified. (A) PDK1 activity was measured in the presence or absence of the HM-polypeptide PIFtide or compound 1 using T308tide as a substrate. PDK1 CD wt and PDK1 [Phe224Trp] were activated by PIFtide and compound 1 whereas PDK1 CD [Thr226Trp] mutant was not activated. (B,C,D,E) PDK1 [Phe224Trp] and PDK1 [Thr226Trp] retain significant binding to P-HM polypeptides and PIFtide. Surface plasmon resonance measurements were carried out on a BiaCore system to evaluate the binding affinities of PDK1 CD wt, PDK1 [Phe224Trp] and PDK1 [Thr226Trp] to HM-polypeptides. Biotin-P-HM-polypeptide derived from S6K1 was immobilized on a streptavidin-coated sensor chip and the specific interaction with PDK1 was recorded. (B) The direct binding of PDK1 CD wt to biotin-P-HM-S6K was recorded at the indicated concentrations of PDK1 CD. The Kd (0.05 μM) was estimated based on the response units obtained at each concentration at equilibrium (insert).
(§2) Protein kinase activity tests were performed essentially as previously described (Balendran et al., 2000; Biondi et al., 2000; Biondi et al., 2001). Substrates used were either MBP (for PKCζ or polypeptides (Crosstide for PKB, S6K, SGK and PRK2; T308tide for PDK1, and Kemptide for PKA). PKA (Sigma) was measured in the presence of 100 μM cAMP. Alternatively, assays were performed in a 96 well format, aliquots spotted on p81 phosphocellulose papers (Whatmann), washed in 0.01% phosphoric acid, dried, and then exposed and analysed using Phospholmager technology (Storm, Molecular Dynamics). Activity measurements were performed in duplicates with less than 10% difference between duplicate pairs. Experiments were repeated at least twice, although most of the experiments were repeated multiple times, with similar results.
(§3) PDK1 activity assay was performed in a 20 μl mix containing 50 mM Tris-HCl pH 7.5, 0.05 mg/ml BSA, 0.1% β-mercaptoethanol, 10 mM MgCl2, 100 μM [γ^32P]ATP (5-50 cpm/pmol), 0.003% Brij, 150 ng PDK1, and T308tide (from 0.05 to 1 mM). PDK1 specific activity was approximately 5 U/mg (when measured at 1 mM T308tide). The effect of small compounds on PDK1 was repeated with proteins from different purification batches and with different protein constructs, comprising the full length protein or the catalytic domain alone, with similar results. […] This variability may be due to the PIFtide/compound-stimulated autophosphorylation of the activation loop in certain preparations having less than a 1:1 molar phosphorylation stoichiometry at this site.

PDK1 [Thr226Trp] = target: T2, PDK1 [Thr226Trp] (Homo sapiens, UniProt O15530, T226W); conditions: catalytic domain 50-360
T2 construct: the catalytic domain of PDK1 (50-359) produced in SF9 insect cells; His-tag (N, cleaved yes); made in house; host or cells: insect cells (baculovirus)
Procedure: as §1, §2, §3

PDK1 50-360 [CT-PIF] = target: T3, PDK1 50-360 [CT-PIF] (Homo sapiens, UniProt O15530); conditions: for AC50: PDK1 50-360 [CT-PIF]; for effect on specific activity of chimera (in words): PDK1 50-360[CT-PIF] chimera
T3 construct: comprising residues 50-360 joined to the last 48 aminoacids from PRK2; His-tag (pFastbac-HT) (N); made in house; host or cells: insect cells (pFastbac-HT baculovirus system); the other entry of the earlier key: PKN2 (Q16513, Serine/threonine-protein kinase N2)
T3 sequence (O15530 with tags, fused parts or gaps): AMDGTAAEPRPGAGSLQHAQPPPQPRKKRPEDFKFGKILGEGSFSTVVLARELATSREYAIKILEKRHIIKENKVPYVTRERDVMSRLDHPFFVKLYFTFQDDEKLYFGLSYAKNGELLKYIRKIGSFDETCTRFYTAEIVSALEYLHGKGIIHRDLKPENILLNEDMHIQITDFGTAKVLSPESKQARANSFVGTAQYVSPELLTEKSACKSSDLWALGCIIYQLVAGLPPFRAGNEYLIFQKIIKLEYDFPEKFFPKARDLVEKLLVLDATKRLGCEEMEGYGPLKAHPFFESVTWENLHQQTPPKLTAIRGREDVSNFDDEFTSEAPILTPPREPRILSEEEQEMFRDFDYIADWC
From the text: We generated a PDK1 chimera consisting of the catalytic domain of PDK1 comprising residues 50-360 joined to the last 48 aminoacids from PRK2, which include the sequence of PIFtide (PDK1 50-360[CT-PIF]). PIFtide binds with high affinity to PDK1. Therefore, we expected that the HM/PIF-pocket in this protein would be strongly bound to the C-terminus of PRK2. In this scenario, the specific activity of the PDK1 50-360[CT-PIF] chimera would not be affected by compounds which otherwise would bind to the PDK1 50-360 HM/PIF-pocket. The PDK1 50-360[CT-PIF] chimera had 1.5-fold higher specific activity than the PDK1 catalytic domain alone. Furthermore, the activity of PDK1 50-360[CT-PIF] chimera was not affected by PIFtide at concentrations that activated the PDK1 50-360 protein (FIG. 2G). Finally, PDK1 50-360[CT-PIF] specific activity was not affected by compound 1, further supporting the notion that PIFtide and compound 1 targeted an overlapping site in the catalytic domain of PDK1.
For the spectrofluorometer assay, the PDK1 protein used was the catalytic domain of PDK1 (50-359) produced in SF9 insect cells using baculovirus expression technology (Invitrogen). PDK1 was cloned in pFastbac-HT plasmid (NcoI-KpnI sites) taking advantage of an endogenous NcoI site in the PDK1 DNA sequence. The codon corresponding to aminoacid 360 was replaced by a stop codon. […]
as §2
PDK1 activity assay was performed in a 20 μl mix containing 50 mM Tris-HCl pH 7.5, 0.05 mg/ml BSA, 0.1% β-mercaptoethanol, 10 mM MgCl2, 100 μM [γ^32P]ATP (5-50 cpm/pmol), 0.003% Brij, 150 ng PDK1, and T308tide (from 0.05 to 1 mM). PDK1 specific activity was approximately 5 U/mg (when measured at 1 mM T308tide). […]
PDK1 activity was measured at room temperature using a polypeptide substrate derived from the activation loop phosphorylation site of PKB, T308tide (0.1 mM). […]

T2 sequence (O15530 50-359 T226W): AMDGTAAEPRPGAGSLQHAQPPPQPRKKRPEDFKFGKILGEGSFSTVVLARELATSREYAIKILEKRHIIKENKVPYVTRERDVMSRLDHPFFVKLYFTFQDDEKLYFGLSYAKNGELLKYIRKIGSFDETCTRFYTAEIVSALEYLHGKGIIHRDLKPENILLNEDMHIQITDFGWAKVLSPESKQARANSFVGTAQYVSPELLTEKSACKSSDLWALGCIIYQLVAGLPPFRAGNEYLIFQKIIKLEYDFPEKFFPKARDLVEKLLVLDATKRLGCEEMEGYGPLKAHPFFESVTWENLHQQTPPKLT
T1 sequence (O15530 50-359 F224W): as the sequence (O15530 50-359 T226W) above, with F175W, W177T counted along it

O=C(O)CSC(CC(=O)c1ccc(Cl)cc1)c1ccccc1 (centres unmarked) [Compound 1]
activation of PDK1 [Phe224Trp] (in words) (PDK1 [Phe224Trp]): activated | activation of PDK1 [Thr226Trp] (in words) (PDK1 [Thr226Trp]): not activated | AC50 (PDK1 50-360 [CT-PIF]): No Effect | effect on specific activity of chimera (in words) (PDK1 50-360 [CT-PIF]): not affected

REPRILSEEEQEMFRDFDYIADWC [PIFtide, reference compound]
activation of PDK1 [Phe224Trp] (in words) (PDK1 [Phe224Trp]): activated | activation of PDK1 [Thr226Trp] (in words) (PDK1 [Thr226Trp]): not activated | AC50 (PDK1 50-360 [CT-PIF]): No Effect | effect on specific activity of chimera (in words) (PDK1 50-360 [CT-PIF]): not affected
